From ChEMBL document CHEMBL5260810, “Inhibition of bromodomain-containing protein 9 for the prevention of epigenetically-defined drug resistance” (Bioorg Med Chem Lett, 2017)

Legend:
[1] = biological target: Chromatin remodeling regulator CECR2 (Homo sapiens, UniProt Q9BXF3); experiment: Displacement of biotinylated small-molecule ligand from recombinant His-tagged CECR2 (unknown origin) measured after 10 mins by TR-FRET assay
[2] = tested on: AMO1; experiment: Cytotoxicity against human AMO1 cells measured after 8 days; assay type: functional, cell-based; conditions: AMO1, 192 h
[3] = tested on: EB2; experiment: Cytotoxicity against human EB2 cells measured after 8 days; assay type: functional, cell-based; conditions: EB2, 192 h
[4] = Cytotoxicity against human MOLM16 cells measured after 8 days; assay type: functional, cell-based, MOLM-16; conditions: MOLM16, 192 h
[5] = Cytotoxicity against human KMS-27 cells measured after 8 days; assay type: functional, cell-based; conditions: KMS-27, 192 h
[6] = Cytotoxicity against human MOR cells measured after 8 days; assay type: functional, cell-based; conditions: 192 h
[7] = tested on: LCLC-103H cell line; experiment: Cytotoxicity against human LCLC-103H cell line measured after 8 days; assay type: functional, cell-based; conditions: 192 h
[8] = Cytotoxicity against human NCI-H2023 cells measured after 8 days; assay type: functional, cell-based; conditions: NCI-H2023, 192 h
[9] = tested on: NCI-H23; experiment: Cytotoxicity against human NCI-H23 cells measured after 8 days; assay type: functional, cell-based; conditions: NCI-H23, 192 h
[10] = tested on: NCI-H2452; experiment: Cytotoxicity against human NCI-H2452 cells measured after 8 days; assay type: functional, cell-based; conditions: NCI-H2452, 192 h
[11] = Cytotoxicity against human PL-21 cells measured after 8 days; assay type: functional, cell-based; conditions: PL-21, 192 h
[12] = tested on: NCI-H460; experiment: Cytotoxicity against human NCI-H460 cells measured after 8 days; assay type: functional, cell-based; conditions: NCI-H460, 192 h
[13] = Cytotoxicity against human VMRC-LCD cells measured after 8 days; assay type: functional, cell-based; conditions: 192 h
[14] = tested on: SU-DHL-1; experiment: Cytotoxicity against human SU-DHL-1 cells measured after 8 days; assay type: functional, cell-based; conditions: SU-DHL-1, 192 h
[15] = tested on: CAL-51; experiment: Cytotoxicity against human CAL-51 cells measured after 8 days; assay type: functional, cell-based; conditions: CAL-51, 192 h
[16] = tested on: HCC1806; experiment: Cytotoxicity against human HCC1806 cells measured after 8 days; assay type: functional, cell-based; conditions: HCC1806, 192 h
[17] = tested on: HEY; experiment: Cytotoxicity against human HEY cells measured after 8 days; assay type: functional, cell-based; conditions: 192 h
[18] = tested on: COLO 320; experiment: Cytotoxicity against human COLO 320 cells measured after 8 days; assay type: functional, cell-based; conditions: COLO 320, 192 h
[19] = tested on: CW-2; experiment: Cytotoxicity against human CW-2 cells measured after 8 days; assay type: functional, cell-based; conditions: CW-2, 192 h
[20] = tested on: HCT-116; experiment: Cytotoxicity against human HCT-116 cells measured after 8 days; assay type: functional, cell-based; conditions: HCT-116, 192 h
[21] = Cytotoxicity against human 501A cells measured after 8 days; assay type: functional, cell-based; conditions: 192 h
[22] = tested on: SW-620; experiment: Cytotoxicity against human SW620 cells measured after 8 days; assay type: functional, cell-based; conditions: SW-620, 192 h
[23] = tested on: DV-90; experiment: Cytotoxicity against human DV-90 cells measured after 8 days; assay type: functional, cell-based; conditions: DV-90, 192 h
[24] = Cytotoxicity against human HCC1171 cells measured after 8 days; assay type: functional, cell-based; conditions: HCC1171, 192 h
[25] = Cytotoxicity against human HCC2279 cells measured after 8 days; assay type: functional, cell-based; conditions: HCC2279, 192 h
[26] = tested on: HCC827; experiment: Cytotoxicity against human HCC827 cells measured after 8 days; assay type: functional, cell-based; conditions: HCC827, 192 h
[27] = biological target: Bromodomain testis-specific protein (Homo sapiens, UniProt Q58F21); experiment: Binding affinity to human partial length BRDT bromodomain 1 (N21 to E137 residues) expressed in bacterial expression system by BROMOscan assay
[28] = biological target: Nucleosome-remodeling factor subunit BPTF (Homo sapiens, UniProt Q12830); experiment: Binding affinity to human partial length FALZ (S2791 to H2911 residues) expressed in bacterial expression system by BROMOscan assay
[29] = biological target: Transcription initiation factor TFIID subunit 1 (Homo sapiens, UniProt P21675); experiment: Binding affinity to human partial length TAF1 bromodomain 2 (D1521 to D1656 residues) expressed in bacterial expression system by BROMOscan assay
[30] = biological target: Macrophage colony-stimulating factor 1 receptor (Homo sapiens) (UniProt P07333); experiment: Inhibition of CSF1R (unknown origin) at 1 uM relative to control
Sequence of Macrophage colony-stimulating factor 1 receptor (Homo sapiens) (P07333 whole entry): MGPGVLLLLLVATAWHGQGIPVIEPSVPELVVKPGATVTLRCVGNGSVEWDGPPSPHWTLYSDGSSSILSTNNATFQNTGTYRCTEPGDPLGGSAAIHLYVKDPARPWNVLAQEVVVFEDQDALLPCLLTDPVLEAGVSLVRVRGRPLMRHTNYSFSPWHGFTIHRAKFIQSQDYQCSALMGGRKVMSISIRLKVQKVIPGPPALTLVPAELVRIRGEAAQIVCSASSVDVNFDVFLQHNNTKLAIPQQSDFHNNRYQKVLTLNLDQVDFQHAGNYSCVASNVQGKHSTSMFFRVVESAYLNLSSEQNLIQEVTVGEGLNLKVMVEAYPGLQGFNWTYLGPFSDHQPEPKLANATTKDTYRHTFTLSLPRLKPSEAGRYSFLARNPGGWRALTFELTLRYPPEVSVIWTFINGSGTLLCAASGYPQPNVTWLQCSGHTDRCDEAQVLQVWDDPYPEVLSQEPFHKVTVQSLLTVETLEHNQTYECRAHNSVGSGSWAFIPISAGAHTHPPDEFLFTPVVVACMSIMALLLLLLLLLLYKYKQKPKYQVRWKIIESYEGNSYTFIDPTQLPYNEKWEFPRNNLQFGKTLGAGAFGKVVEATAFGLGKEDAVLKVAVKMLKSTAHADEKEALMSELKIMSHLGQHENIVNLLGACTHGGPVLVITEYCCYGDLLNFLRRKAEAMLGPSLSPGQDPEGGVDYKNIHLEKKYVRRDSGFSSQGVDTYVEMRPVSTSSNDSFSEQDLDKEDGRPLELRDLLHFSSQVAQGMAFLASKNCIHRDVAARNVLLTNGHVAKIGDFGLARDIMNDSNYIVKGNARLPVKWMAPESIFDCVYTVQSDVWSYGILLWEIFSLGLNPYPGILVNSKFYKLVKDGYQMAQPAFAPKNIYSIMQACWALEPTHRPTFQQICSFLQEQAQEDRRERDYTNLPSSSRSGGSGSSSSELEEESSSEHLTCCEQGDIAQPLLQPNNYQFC

[31] = biological target: High affinity nerve growth factor receptor (Homo sapiens) (UniProt P04629); experiment: Inhibition of TrkA (unknown origin) at 1 uM relative to control
Sequence of High affinity nerve growth factor receptor (Homo sapiens) (P04629 33-796 limits assumed): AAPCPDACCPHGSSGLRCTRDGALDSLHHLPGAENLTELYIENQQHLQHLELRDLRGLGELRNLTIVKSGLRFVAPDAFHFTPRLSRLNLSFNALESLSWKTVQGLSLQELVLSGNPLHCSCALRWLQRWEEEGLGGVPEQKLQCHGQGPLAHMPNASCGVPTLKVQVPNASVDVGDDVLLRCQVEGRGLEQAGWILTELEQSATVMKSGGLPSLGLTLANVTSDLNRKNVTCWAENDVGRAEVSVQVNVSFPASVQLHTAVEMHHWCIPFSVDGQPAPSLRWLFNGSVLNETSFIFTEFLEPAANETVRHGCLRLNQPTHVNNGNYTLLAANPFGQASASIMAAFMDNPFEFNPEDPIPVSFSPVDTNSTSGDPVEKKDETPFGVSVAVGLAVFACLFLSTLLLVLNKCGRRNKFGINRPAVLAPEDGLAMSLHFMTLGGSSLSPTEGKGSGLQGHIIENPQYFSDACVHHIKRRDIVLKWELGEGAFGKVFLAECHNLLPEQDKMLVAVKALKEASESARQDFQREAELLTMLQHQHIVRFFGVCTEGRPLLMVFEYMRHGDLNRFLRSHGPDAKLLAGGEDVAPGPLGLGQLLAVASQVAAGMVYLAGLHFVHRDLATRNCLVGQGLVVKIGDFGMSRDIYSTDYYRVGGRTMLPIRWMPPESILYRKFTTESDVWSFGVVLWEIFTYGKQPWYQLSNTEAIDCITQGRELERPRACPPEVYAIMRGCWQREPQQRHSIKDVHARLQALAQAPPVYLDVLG

[32] = biological target: Adrenergic receptor alpha-2 (Rattus norvegicus) (UniProt P22086+P19328+P22909); experiment: Displacement of [3H]-RX 821002 from rat alpha2 adrenoceptor at 10 uM after 60 mins by scintillation counting analysis relative to control; assay type: protein assay
[33] = biological target: T1, Muscarinic acetylcholine receptor M1 (Homo sapiens) (UniProt P11229); experiment: Displacement of [125I]pirenzepine from human recombinant M1 receptor at 10 uM after 60 mins by scintillation counting analysis relative to control
T1 sequence (whole entry): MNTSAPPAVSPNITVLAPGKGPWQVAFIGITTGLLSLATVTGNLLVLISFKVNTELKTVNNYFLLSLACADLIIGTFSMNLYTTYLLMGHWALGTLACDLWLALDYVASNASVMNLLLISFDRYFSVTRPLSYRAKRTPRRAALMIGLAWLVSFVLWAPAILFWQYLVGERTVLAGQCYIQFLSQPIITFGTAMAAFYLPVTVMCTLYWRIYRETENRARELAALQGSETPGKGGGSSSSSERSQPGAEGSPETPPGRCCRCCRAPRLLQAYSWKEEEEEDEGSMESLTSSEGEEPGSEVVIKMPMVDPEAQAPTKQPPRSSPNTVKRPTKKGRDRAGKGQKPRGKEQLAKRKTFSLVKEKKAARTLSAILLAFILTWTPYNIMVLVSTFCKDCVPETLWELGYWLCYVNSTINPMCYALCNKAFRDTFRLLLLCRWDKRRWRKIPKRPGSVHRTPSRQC

[34] = biological target: 5-hydroxytryptamine receptor 1B (Rattus norvegicus) (UniProt P28564); experiment: Displacement of [125I]-CYP from rat brain 5-HT1B receptor at 10 uM after 120 mins by scintillation counting analysis relative to control
Sequence of 5-hydroxytryptamine receptor 1B (Rattus norvegicus) (P28564 whole entry): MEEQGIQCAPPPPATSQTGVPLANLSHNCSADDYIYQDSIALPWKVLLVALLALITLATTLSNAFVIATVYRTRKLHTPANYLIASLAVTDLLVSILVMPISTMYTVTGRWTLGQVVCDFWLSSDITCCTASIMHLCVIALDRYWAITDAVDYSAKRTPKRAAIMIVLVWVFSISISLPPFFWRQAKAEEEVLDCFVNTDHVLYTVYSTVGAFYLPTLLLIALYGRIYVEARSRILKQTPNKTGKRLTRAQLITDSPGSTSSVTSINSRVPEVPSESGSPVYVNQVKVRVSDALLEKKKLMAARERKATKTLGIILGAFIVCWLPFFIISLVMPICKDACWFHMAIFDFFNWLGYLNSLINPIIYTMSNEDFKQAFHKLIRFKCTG

[35] = organism: Homo sapiens; experiment: Displacement of [3H]BRL 43694 from human recombinant 5-HT3 receptor at 10 uM after 120 mins by scintillation counting analysis relative to control
[36] = organism: Homo sapiens; experiment: Displacement of [3H] Dofetilide from human potassium channel at 10 uM relative to control
[37] = organism: Rattus norvegicus; experiment: Displacement of [125I]alpha-dendrotoxin from rat brain voltage-gated K channel at 10 uM after 60 mins by scintillation counting analysis relative to control
[38] = organism: Rattus norvegicus; experiment: Displacement of [3H]batrachotoxinin from rat brain sodium voltage gated ion channel site 2 at 10 uM after 60 mins by scintillation counting analysis relative to control

Sequence of Chromatin remodeling regulator CECR2 (Q9BXF3 whole entry): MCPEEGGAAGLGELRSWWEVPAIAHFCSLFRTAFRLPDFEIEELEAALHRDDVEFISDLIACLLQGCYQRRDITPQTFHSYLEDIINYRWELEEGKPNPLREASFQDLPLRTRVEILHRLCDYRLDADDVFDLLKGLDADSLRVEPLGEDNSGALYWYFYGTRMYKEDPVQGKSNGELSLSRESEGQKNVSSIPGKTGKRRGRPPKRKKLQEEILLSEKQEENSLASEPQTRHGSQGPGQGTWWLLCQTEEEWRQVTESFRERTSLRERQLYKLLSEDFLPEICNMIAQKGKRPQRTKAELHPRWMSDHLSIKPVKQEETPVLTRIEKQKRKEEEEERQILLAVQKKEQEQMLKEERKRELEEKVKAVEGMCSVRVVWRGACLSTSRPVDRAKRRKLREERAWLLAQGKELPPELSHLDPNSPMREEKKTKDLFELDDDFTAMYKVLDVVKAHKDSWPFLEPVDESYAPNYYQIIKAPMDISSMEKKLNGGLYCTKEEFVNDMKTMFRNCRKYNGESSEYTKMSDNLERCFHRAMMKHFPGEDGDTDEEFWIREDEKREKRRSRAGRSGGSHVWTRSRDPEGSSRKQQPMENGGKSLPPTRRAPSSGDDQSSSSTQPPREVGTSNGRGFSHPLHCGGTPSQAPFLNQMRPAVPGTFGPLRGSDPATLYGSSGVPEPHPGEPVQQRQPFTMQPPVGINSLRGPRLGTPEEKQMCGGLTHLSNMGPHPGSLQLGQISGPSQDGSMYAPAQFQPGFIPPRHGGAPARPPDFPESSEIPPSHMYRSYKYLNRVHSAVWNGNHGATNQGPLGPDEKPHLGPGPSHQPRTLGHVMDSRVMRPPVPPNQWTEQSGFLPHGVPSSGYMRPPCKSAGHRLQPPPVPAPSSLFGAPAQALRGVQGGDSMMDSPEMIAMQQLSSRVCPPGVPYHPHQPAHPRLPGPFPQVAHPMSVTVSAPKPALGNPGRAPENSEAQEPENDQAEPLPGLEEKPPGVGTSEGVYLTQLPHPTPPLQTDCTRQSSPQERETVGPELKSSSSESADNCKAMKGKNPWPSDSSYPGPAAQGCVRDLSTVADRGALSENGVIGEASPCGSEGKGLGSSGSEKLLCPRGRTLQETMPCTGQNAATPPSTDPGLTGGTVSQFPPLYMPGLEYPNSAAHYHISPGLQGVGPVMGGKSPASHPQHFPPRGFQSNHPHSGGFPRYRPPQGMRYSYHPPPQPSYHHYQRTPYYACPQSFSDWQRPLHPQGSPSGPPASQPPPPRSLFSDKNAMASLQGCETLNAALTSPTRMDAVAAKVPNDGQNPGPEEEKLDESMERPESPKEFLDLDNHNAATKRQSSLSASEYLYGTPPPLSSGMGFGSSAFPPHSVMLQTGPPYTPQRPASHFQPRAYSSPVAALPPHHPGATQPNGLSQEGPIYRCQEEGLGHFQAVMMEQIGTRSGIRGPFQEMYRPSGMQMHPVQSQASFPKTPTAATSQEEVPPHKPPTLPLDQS

Q: For `C/C=C/Cn1cc(-c2ccc(C(C)(C)O)cc2OC)c2cc[nH]c2c1=O`, which IC50 [1] is on record?
A: The IC50 was over 20 µM.

Q: And the IC50 [2]?
A: The IC50 was 20 µM.

Q: And the IC50 [3]?
A: Its IC50 is 20 µM.

Q: What about the IC50 [4] of the same compound?
A: The IC50 was 17.8 µM.

Q: And the IC50 [5]?
A: Its IC50 is 20 µM.

Q: And the IC50 [6]?
A: The IC50 was 20 µM.

Q: And the IC50 [7]?
A: Its IC50 is 20 µM.

Q: And the IC50 [8]?
A: Its IC50 is 20 µM.

Q: And the IC50 [9]?
A: Its IC50 is 20 µM.

Q: What about the IC50 [10] of the same compound?
A: Its IC50 is 20 µM.

Q: And the IC50 [11]?
A: Its IC50 is 20 µM.

Q: What about the IC50 [12] of the same compound?
A: Its IC50 is 20 µM.

Q: And the IC50 [13]?
A: The IC50 was 20 µM.

Q: And the IC50 [14]?
A: Its IC50 is 20 µM.

Q: What about the IC50 [15] of the same compound?
A: The IC50 was 20 µM.

Q: And the IC50 [16]?
A: The IC50 was 20 µM.

Q: And the IC50 [17]?
A: The IC50 was 20 µM.

Q: What about the IC50 [18] of the same compound?
A: Its IC50 is 20 µM.

Q: What about the IC50 [19] of the same compound?
A: The IC50 was 20 µM.

Q: What about the IC50 [20] of the same compound?
A: Its IC50 is 20 µM.

Q: What about the IC50 [21] of the same compound?
A: Its IC50 is 20 µM.

Q: And the IC50 [22]?
A: Its IC50 is 20 µM.

Q: What about the IC50 [23] of the same compound?
A: The IC50 was 20 µM.

Q: What about the IC50 [24] of the same compound?
A: Its IC50 is 20 µM.

Q: What about the IC50 [25] of the same compound?
A: The IC50 was 20 µM.

Q: And the IC50 [26]?
A: The IC50 was 20 µM.

Q: What about the Kd [27] of the same compound?
A: Its Kd is 0.83 µM.

Q: And the Kd [28]?
A: Its Kd is over 10 µM.

Q: What about the Kd [29] of the same compound?
A: The Kd was over 10 µM.

Q: And the inhibition [30]?
A: The inhibition was 6.5%.

Q: What about the inhibition [31] of the same compound?
A: Its inhibition is 12.5%.

Q: What about the Activity [32] of the same compound?
A: Its Activity is -1%.

Q: What about the Activity [33] of the same compound?
A: Its Activity is 1%.

Q: And the Activity [34]?
A: The Activity was -15%.

Q: And the Activity [35]?
A: Its Activity is -6%.

Q: And the Activity [36]?
A: The Activity was -5%.

Q: And the Activity [37]?
A: Its Activity is -1%.

Q: What about the Activity [38] of the same compound?
A: The Activity was 12%.

Q: With `C/C=C/Cn1cc(-c2cc(OC)c(C(C)(C)O)cc2OC)c2cc(C)[nH]c2c1=O` as the compound, how does the IC50 [1] read?
A: Its IC50 is 4.3 µM.

Q: What about the Kd [27] of the same compound?
A: The Kd was 2.1 µM.

Q: What about the Kd [28] of the same compound?
A: The Kd was over 10 µM.

Q: And the Kd [29]?
A: The Kd was over 10 µM.

Q: Which results are given for `C/C=C/Cn1cc(-c2ccc(C(=O)N3CCOCC3)cc2)c2cc[nH]c2c1=O`?
A: IC50 [1]: 2.9 µM; IC50 [2]: 20 µM; IC50 [3]: 20 µM; IC50 [4]: 9.59 µM; IC50 [5]: 20 µM; IC50 [6]: 20 µM; IC50 [7]: 20 µM; IC50 [8]: 20 µM; IC50 [9]: 20 µM; IC50 [10]: 20 µM; IC50 [11]: 20 µM; IC50 [12]: 20 µM; IC50 [13]: 20 µM; IC50 [14]: 20 µM; IC50 [15]: 20 µM; IC50 [16]: 20 µM; IC50 [17]: 20 µM; IC50 [18]: 20 µM; IC50 [19]: 20 µM; IC50 [20]: 20 µM; IC50 [21]: 20 µM; IC50 [22]: 20 µM; IC50 [23]: 20 µM; IC50 [24]: 20 µM; IC50 [25]: 20 µM; IC50 [26]: 20 µM; Kd [27]: 2.5 µM; Kd [28]: > 10 µM; Kd [29]: 0.31 µM; inhibition [30]: 2.8%; inhibition [31]: 21.4%; Activity [32]: -7%; Activity [33]: -8%; Activity [34]: 8%; Activity [35]: -5%; Activity [36]: 13%; Activity [37]: 0%; Activity [38]: 11%

Q: What does the source list for `C/C=C/Cn1cc(-c2cc(OC)c(C(=O)N3CCOCC3)cc2OC)c2cc(C)[nH]c2c1=O`?
A: IC50 [1]: 2.4 µM; IC50 [2]: 2 µM; IC50 [3]: 2 µM; IC50 [4]: 2 µM; IC50 [5]: 2 µM; IC50 [6]: 2 µM; IC50 [7]: 2 µM; IC50 [8]: 2 µM; IC50 [9]: 2 µM; IC50 [10]: 2 µM; IC50 [11]: 2 µM; IC50 [12]: 2 µM; IC50 [13]: 2 µM; IC50 [14]: 2 µM; IC50 [15]: 2 µM; IC50 [16]: 2 µM; IC50 [17]: 2 µM; IC50 [18]: 2 µM; IC50 [19]: 2 µM; IC50 [20]: 2 µM; IC50 [21]: 2 µM; IC50 [22]: 2 µM; IC50 [23]: 2 µM; IC50 [24]: 2 µM; IC50 [25]: 2 µM; IC50 [26]: 2 µM; Kd [27]: > 10 µM; Kd [28]: > 10 µM; Kd [29]: > 10 µM; inhibition [30]: 6.5%; inhibition [31]: 12%; Activity [32]: -12%; Activity [33]: -1%; Activity [34]: -10%; Activity [35]: -5%; Activity [36]: 18%; Activity [37]: 2%; Activity [38]: 17%
